The source of these data is paper PMC9501525, “Conjugation of a Cationic Cell-Penetrating Peptide with a Novel Kunitzin-like Trypsin Inhibitor: New Insights for Enhancement of Peptide Bioactivities” (Pharmaceutics, 2022).

Peptide text beside a SMILES is read from it.

The series concerns MRC-5 human pulmonary fibroblast cells. Put plainly: LDH cytotoxicity assay. It is filed as cell-based. As to conditions: MRC-5, 24 h, highest test concentration 100 µM; relative to lysis buffer maximum. As to the method: A CyQUANT™ LDH Cytotoxicity Detection Kit (Thermo Fisher Scientific, Waltham, MA, USA) was used to detect the LDH released from human microvascular endothelial cell line (HMEC-1) and human pulmonary fibroblast cell line (MRC-5). Cells were cultured as for the MTT antiproliferation assay described previously. After incubation, the peptide solutions at the same concentrations as in the previous method were added to the cells for further incubation of 24 h. Among these, the positive control group, representing the maximal LDH release, was obtained from the 10 × lysis buffer supplied in the kit. The lysis buffer was added to the control group and co-cultured for 45 min, while deionized water was added to the spontaneous LDH release control. Subsequently, the same volume of sample as the reaction mixture was withdrawn, added into a new 96-well plate, and mixed well. After co-culturing under dark conditions for 30 min, an equal amount of stop solution was added to stop the reaction. Absorbance values of all experimental groups were measured at wavelengths of 490 and 680 nm using the Synergy HT plate reader.

For `CC(C)C[C@H](NC(=O)[C@H](CCCCN)NC(=O)[C@H](C)NC(=O)[C@H](C)NC(=O)CNC(=O)CNC(=O)[C@H](CCCNC(=N)N)NC(=O)[C@H](CCCNC(=N)N)NC(=O)[C@H](CCCNC(=N)N)NC(=O)[C@H](CCC(N)=O)NC(=O)[C@H](CCCNC(=N)N)NC(=O)[C@H](CCCNC(=N)N)NC(=O)[C@H](CCCCN)NC(=O)[C@H](CCCCN)NC(=O)[C@@H](N)CCCNC(=N)N)C(=O)N1CCC[C@H]1C(=O)N[C@@H](Cc1ccccc1)C(=O)N[C@@H](CCCNC(=N)N)C(=O)N[C@H]1CSSC[C@@H](C(=O)O)NC(=O)[C@H](Cc2ccccc2)NC(=O)[C@H](C)NC(=O)[C@H](C)NC(=O)[C@H](Cc2ccccc2)NC1=O` [TAT-F9-KOV2] (HELM PEPTIDE1{R.K.K.R.R.Q.R.R.R.G.G.A.A.K.L.P.F.R.C.F.A.A.F.C}$PEPTIDE1,PEPTIDE1,19:R3-24:R3$$$V2.0), the LDH release entry is on record as “more than 10%”.
